Assay results taken from US11208405B2, “Pyrrole derivatives as PLK1 inhibitors” (SENTINEL ONCOLOGY LIMITED, priority 2017, dated 2021).
Structures can show the parent of a compound that is named as a salt. Where two headings read alike, the source gives them in different places.

Key:
[1] = tested on: HCT116 xenograft tumours; assay: In vivo anti-cancer activity in mice bearing HCT116 tumours; details: oral 50 mg/kg or 200 m/kg on days 1, 3, 7, 10 and 13, dose of the T/C value not stated
Procedure: In Vivo Anti-Cancer Activity in Mice Bearing HCT116 Tumours
Mice bearing HCT116 xenograft tumours were give oral dosages of either 50 mg/kg or […] on days 1, 3, 7, 10 and 13 and the tumour volumes measured at days 1, 3, 5, 8, 10, 12 and 15. Tumour volumes in a control group of tumour-bearing mice, who had received vehicle only at the same time points were also measured.

[2] = target: T1, TLK2 (Homo sapiens, UniProt Q86UE8); assay: Kinase selectivity assay (DiscoverX KinomeScreen), TLK2; type: binding; details: TLK2, 5 μM; read-out: % Control
T1 construct: purchased DiscoverX
Procedure: (§1) The compound of Example 33 was tested for off-target activity against a panel of fifty five kinases bearing functional or structural similarity to PLK1 at a concentration of 5 μM using the DiscoverX KinomeScreen assay.

[3] = target: T2, CDK2 (Homo sapiens, UniProt P24941); assay: Kinase selectivity assay (DiscoverX KinomeScreen), CDK2; type: binding; details: CDK2, 5 μM; read-out: % Control
T2 construct: purchased DiscoverX
Procedure: as §1

[4] = Determination of brain exposure following oral dosing in mice; type: in vivo, male CD-1 mice; details: male, CD-1, mouse, 10 mg/Kg PO
Procedure: Determination of Brain Exposure Following Oral Dosing in Mice An experiment was carried out on the compound of Example 33 to determine the extent of its brain penetration following oral dosing in mice. The following protocol was used. 15 male CD-1 mice (n=3/time point) were dosed perorally with the compound of Example 33 (10 mg/kg; dose concentration 1 mg/ml; dose volume 10 mL/kg). […] Animals were housed in pre-assigned housing cages until sampling. Appropriate samples were taken at […] time points and stored immediately at −20° C. Homogenisation and protein precipitation with acetonitrile was carried out for plasma and brain. Analysis was carried out with tandem mass spectrometry using electrospray ionisation. The results of the experiment are shown in FIG. 2 and in Table 10 below.

[5] = target: T3, DSTYK (Homo sapiens, UniProt Q6XUX3); assay: Kinase selectivity assay (DiscoverX KinomeScreen), DSTYK; type: binding; details: read-out: % Control
T3 construct: purchased DiscoverX
Procedure: as §1

[6] = target: T4, NEK2 (Homo sapiens, UniProt P51955); assay: Kinase selectivity assay (DiscoverX KinomeScreen), NEK2; type: binding; details: NEK2, 5 μM; read-out: % Control
T4 construct: purchased DiscoverX
Procedure: as §1

[7] = target: T5, SgK110 (Homo sapiens, UniProt P0C264); assay: Kinase selectivity assay (DiscoverX KinomeScreen), SgK110; type: binding; details: SgK110, 5 μM; read-out: % Control
T5 construct: purchased DiscoverX
Procedure: as §1

[8] = tested on: cytochrome P450 1A; assay: Cytochrome P450 inhibition, 1A; type: in vitro ADME
[9] = target: T6, TTK (Homo sapiens, UniProt P33981); assay: Kinase selectivity assay (DiscoverX KinomeScreen), TTK; type: binding; details: read-out: % Control
T6 construct: purchased DiscoverX
Procedure: as §1

[10] = target: T7, PKMYT1 (Homo sapiens, UniProt Q99640); assay: Kinase selectivity assay (DiscoverX KinomeScreen), PKMYT1; type: binding; details: PKMYT1, 5 μM; read-out: % Control
T7 construct: purchased DiscoverX
Procedure: as §1

[11] = target: T8, GAK (Homo sapiens, UniProt O14976); assay: Kinase selectivity assay (DiscoverX KinomeScreen), GAK; type: binding; details: read-out: % Control
T8 construct: purchased DiscoverX
Procedure: as §1

[12] = target: T9, WNK2 (Homo sapiens, UniProt Q9Y3S1); assay: Kinase selectivity assay (DiscoverX KinomeScreen), WNK2; type: binding; details: WNK2, 5 μM; read-out: % Control
T9 construct: purchased DiscoverX
Procedure: as §1

[13] = target: T10, ERN1 (Homo sapiens, UniProt O75460); assay: Kinase selectivity assay (DiscoverX KinomeScreen), ERN1; type: binding; details: ERN1, 5 μM; read-out: % Control
T10 construct: purchased DiscoverX
Procedure: as §1

[14] = target: T11, TBK1 (Homo sapiens, UniProt Q9UHD2); assay: Kinase selectivity assay (DiscoverX KinomeScreen), TBK1; type: binding; details: TBK1, 5 μM; read-out: % Control
T11 construct: purchased DiscoverX
Procedure: as §1

[15] = target: T12, NEK3 (Homo sapiens, UniProt P51956); assay: Kinase selectivity assay (DiscoverX KinomeScreen), NEK3; type: binding; details: NEK3, 5 μM; read-out: % Control
T12 construct: purchased DiscoverX
Procedure: as §1

[16] = target: T13, NEK9 (Homo sapiens, UniProt Q8TD19); assay: Kinase selectivity assay (DiscoverX KinomeScreen), NEK9; type: binding; details: NEK9, 5 μM; read-out: % Control
T13 construct: purchased DiscoverX
Procedure: as §1

[17] = target: T14, NEK6 (Homo sapiens, UniProt Q9HC98); assay: Kinase selectivity assay (DiscoverX KinomeScreen), NEK6; type: binding; details: NEK6, 5 μM; read-out: % Control
T14 construct: purchased DiscoverX
Procedure: as §1

[18] = tested on: glioblastoma cell line 905984; assay: Glioblastoma cancer cell viability, cell line 905984; type: cell-based
Procedure: (§2) Assay to Measure the Effects of Compounds of the Invention on Glioblastoma Cancer Cell Viability
(§3) The compound of Example 33 was tested for inhibitory activity against the glioblastoma cell lines in Table 7 below.

[19] = Kinetic solubility; type: physicochemical; details: kinetic from dmso stock
[20] = tested on: glioblastoma cell line 909905; assay: Glioblastoma cancer cell viability, cell line 909905; type: cell-based
Procedure: as §2, §3

[21] = tested on: glioblastoma cell line 907313; assay: Glioblastoma cancer cell viability, cell line 907313; type: cell-based
Procedure: as §2, §3

[22] = tested on: glioblastoma cell line 908144; assay: Glioblastoma cancer cell viability, cell line 908144; type: cell-based
Procedure: as §2, §3

[23] = tested on: glioblastoma cell line 907042; assay: Glioblastoma cancer cell viability, cell line 907042; type: cell-based
Procedure: as §2, §3

[24] = target: T15, PLK1 (Homo sapiens, UniProt P53350); assay: Kinase selectivity assay (DiscoverX KinomeScreen), PLK1; type: binding; details: PLK1, 5 μM; read-out: % Control
T15 construct: purchased DiscoverX
Procedure: as §1

[25] = tested on: glioblastoma cell line 907271; assay: Glioblastoma cancer cell viability, cell line 907271; type: cell-based
Procedure: as §2, §3

[26] = target: T16, EIF2AK1 (Homo sapiens, UniProt Q9BQI3); assay: Kinase selectivity assay (DiscoverX KinomeScreen), EIF2AK1; type: binding; details: EIF2AK1, 5 μM; read-out: % Control
T16 construct: purchased DiscoverX
Procedure: as §1

[27] = target: T17, EIF2AK2 (Homo sapiens, UniProt P19525); assay: Kinase selectivity assay (DiscoverX KinomeScreen), EIF2AK2; type: binding; details: EIF2AK2, 5 μM; read-out: % Control
T17 construct: purchased DiscoverX
Procedure: as §1

[28] = target: T18, NEK4 (Homo sapiens, UniProt P51957); assay: Kinase selectivity assay (DiscoverX KinomeScreen), NEK4; type: binding; details: NEK4, 5 μM; read-out: % Control
T18 construct: purchased DiscoverX
Procedure: as §1

[29] = target: T19, WEE2 (Homo sapiens, UniProt P0C1S8); assay: Kinase selectivity assay (DiscoverX KinomeScreen), WEE2; type: binding; details: WEE2, 5 μM; read-out: % Control
T19 construct: purchased DiscoverX
Procedure: as §1

[30] = target: T20, CAMKK1 (Homo sapiens, UniProt Q8N5S9); assay: Kinase selectivity assay (DiscoverX KinomeScreen), CAMKK1; type: binding; details: CAMKK1, 5 μM; read-out: % Control
T20 construct: purchased DiscoverX
Procedure: as §1

T6 sequence (P33981 whole entry): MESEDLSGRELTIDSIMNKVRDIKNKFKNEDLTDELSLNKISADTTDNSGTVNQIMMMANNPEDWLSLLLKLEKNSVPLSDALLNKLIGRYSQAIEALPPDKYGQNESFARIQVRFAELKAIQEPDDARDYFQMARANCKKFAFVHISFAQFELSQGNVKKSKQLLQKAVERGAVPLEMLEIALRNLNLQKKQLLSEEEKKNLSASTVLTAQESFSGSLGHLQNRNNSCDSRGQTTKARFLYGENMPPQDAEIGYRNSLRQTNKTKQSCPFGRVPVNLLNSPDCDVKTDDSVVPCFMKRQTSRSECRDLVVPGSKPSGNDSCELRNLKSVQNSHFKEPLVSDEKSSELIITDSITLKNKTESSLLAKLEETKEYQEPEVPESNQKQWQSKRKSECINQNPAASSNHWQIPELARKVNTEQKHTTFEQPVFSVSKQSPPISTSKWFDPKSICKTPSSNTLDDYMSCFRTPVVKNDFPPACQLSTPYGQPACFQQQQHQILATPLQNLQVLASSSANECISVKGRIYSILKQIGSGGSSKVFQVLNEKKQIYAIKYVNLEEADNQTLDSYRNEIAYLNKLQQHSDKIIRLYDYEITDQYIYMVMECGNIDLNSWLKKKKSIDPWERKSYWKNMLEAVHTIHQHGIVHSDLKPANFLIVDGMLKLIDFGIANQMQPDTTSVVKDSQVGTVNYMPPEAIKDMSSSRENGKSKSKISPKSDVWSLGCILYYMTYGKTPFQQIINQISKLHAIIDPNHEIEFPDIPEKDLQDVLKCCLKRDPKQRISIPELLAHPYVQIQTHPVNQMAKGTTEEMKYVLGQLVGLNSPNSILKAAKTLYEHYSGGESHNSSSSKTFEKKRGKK
T13 sequence (Q8TD19 whole entry): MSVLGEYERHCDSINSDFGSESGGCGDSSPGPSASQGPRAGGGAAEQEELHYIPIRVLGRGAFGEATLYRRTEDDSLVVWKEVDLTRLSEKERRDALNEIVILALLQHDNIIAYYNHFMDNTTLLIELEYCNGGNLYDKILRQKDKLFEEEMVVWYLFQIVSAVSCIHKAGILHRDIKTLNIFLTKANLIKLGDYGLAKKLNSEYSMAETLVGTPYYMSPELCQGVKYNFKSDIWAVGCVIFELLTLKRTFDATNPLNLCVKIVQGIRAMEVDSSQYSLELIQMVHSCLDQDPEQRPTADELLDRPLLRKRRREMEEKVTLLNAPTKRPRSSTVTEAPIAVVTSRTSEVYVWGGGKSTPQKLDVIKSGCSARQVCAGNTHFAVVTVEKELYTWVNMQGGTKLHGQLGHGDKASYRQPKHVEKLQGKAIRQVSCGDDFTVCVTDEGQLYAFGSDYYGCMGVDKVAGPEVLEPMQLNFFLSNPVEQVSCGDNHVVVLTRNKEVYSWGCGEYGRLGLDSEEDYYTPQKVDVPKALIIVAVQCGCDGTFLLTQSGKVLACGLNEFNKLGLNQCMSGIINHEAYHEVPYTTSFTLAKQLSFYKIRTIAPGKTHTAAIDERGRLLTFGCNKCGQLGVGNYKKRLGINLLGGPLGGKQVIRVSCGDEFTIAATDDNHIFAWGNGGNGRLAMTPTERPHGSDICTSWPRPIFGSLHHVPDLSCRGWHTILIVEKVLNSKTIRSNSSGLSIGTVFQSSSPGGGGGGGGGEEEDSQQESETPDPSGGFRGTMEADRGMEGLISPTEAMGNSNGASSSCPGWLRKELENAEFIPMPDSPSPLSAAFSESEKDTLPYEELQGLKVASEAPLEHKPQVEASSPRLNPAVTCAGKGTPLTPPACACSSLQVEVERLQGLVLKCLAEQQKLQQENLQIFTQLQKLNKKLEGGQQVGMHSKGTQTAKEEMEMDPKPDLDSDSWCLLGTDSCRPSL
T8 sequence (O14976 whole entry): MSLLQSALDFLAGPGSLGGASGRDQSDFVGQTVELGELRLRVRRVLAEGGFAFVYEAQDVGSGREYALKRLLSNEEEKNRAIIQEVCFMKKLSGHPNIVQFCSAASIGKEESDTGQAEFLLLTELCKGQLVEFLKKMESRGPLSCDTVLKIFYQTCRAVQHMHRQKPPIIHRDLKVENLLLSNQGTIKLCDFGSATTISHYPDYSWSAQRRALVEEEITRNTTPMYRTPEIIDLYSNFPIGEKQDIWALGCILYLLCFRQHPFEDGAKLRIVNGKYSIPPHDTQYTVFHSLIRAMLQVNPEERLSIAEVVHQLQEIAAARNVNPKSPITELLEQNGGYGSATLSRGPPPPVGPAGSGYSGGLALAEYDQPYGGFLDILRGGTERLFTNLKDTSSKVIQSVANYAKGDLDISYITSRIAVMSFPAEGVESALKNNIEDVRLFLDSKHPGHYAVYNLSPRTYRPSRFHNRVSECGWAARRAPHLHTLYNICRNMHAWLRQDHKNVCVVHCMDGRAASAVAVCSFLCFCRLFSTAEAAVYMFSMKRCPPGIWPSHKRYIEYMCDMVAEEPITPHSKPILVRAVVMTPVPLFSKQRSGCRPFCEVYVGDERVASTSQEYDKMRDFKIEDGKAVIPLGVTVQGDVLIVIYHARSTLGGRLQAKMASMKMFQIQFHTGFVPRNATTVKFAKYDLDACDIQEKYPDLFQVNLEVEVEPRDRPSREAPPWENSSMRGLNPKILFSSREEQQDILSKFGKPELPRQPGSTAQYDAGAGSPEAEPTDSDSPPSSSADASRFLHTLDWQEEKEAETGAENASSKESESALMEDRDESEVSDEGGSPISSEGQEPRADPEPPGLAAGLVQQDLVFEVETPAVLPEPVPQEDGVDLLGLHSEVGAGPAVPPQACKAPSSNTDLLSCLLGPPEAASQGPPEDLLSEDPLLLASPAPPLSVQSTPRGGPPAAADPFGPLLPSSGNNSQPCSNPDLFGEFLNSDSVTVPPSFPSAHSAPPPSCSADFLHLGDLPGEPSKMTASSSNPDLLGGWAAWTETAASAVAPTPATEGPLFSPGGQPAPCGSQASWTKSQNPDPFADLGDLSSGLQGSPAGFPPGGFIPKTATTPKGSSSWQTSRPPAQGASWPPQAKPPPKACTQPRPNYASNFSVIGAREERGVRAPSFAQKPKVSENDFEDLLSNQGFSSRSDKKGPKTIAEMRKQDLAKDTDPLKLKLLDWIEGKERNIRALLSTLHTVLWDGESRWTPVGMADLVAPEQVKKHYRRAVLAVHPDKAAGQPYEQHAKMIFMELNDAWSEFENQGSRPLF
T12 sequence (P51956 whole entry): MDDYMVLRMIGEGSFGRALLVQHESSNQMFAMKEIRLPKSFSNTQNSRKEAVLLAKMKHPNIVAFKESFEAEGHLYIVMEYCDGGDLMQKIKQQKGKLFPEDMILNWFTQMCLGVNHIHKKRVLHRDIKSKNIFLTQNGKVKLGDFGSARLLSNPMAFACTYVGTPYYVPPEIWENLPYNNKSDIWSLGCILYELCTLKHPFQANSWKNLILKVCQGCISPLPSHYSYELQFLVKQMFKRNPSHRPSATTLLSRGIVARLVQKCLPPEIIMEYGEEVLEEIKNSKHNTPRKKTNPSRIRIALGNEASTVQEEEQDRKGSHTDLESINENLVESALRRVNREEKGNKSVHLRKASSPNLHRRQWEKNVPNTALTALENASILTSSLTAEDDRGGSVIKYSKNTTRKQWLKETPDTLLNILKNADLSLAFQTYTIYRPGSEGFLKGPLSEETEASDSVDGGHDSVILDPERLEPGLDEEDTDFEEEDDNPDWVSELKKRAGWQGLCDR
T19 sequence (P0C1S8 whole entry): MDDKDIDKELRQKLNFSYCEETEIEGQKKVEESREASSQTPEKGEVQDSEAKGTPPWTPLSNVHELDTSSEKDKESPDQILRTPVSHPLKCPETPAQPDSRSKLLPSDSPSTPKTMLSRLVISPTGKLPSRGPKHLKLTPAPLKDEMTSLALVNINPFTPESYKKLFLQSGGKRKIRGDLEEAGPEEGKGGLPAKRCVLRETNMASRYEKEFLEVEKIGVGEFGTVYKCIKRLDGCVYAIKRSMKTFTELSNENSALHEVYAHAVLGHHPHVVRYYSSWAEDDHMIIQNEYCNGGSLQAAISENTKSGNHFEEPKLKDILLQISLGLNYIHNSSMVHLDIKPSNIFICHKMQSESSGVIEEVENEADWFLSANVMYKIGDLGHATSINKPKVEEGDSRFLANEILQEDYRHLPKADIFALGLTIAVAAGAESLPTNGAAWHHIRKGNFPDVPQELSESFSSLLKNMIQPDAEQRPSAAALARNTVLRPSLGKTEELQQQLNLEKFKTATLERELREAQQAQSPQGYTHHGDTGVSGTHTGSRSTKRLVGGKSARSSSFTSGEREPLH
T1 sequence (Q86UE8 whole entry): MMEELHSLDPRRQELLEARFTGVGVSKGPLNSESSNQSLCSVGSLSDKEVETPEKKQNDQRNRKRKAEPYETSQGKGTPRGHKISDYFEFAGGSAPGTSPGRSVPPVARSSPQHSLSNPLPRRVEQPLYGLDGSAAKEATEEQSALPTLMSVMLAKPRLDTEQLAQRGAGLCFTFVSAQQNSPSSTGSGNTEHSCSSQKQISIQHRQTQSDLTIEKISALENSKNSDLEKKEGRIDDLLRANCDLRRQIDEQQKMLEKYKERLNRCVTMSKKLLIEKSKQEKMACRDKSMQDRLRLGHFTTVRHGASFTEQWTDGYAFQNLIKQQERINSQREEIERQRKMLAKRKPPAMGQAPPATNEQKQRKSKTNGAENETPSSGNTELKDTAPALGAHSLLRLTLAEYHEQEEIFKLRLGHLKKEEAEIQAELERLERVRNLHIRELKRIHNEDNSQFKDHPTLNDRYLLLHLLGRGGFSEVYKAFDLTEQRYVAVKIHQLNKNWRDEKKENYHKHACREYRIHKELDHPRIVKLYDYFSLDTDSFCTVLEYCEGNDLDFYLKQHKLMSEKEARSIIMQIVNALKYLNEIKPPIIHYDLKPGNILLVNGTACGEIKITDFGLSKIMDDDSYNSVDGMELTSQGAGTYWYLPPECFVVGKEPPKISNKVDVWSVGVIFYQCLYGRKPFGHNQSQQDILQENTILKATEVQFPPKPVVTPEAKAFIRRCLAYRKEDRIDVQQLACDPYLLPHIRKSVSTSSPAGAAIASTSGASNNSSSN

CN(C)CCNC(=O)c1ccc(-c2ccc(-c3ccc(Cl)cc3)n2-c2ccccc2C(F)(F)F)cc1 [Example 33, 4-[5-(4-chlorophenyl)-1-[2-(trifluoromethyl)phenyl]pyrrol-2-yl]-N-[2-(dimethylamino)ethyl]benzamide Hydrochloride]
effect on tumour growth (T/C) [1]: 48%
remaining activity at 5 µM [2]: 94%
remaining activity at 5 µM [3]: 89%
AUC(0-t) ([4]; brain, read-out: AUClast (Brain)): 31900 ng·h/mL
Tmax ([4]; brain, read-out: Tmax (Brain)): 24 h
AUC(0-t) ([4]; plasma, read-out: AUClast (Plasma)): 5030 ng·h/mL
Tmax ([4]; plasma, read-out: Tmax (Plasma)): 8 h
remaining activity at 5 µM [5]: 75%
remaining activity at 5 µM [6]: 94%
remaining activity at 5 µM [7]: 100%
cytochrome P450 inhibition 1A [8]: > 10 µM
remaining activity at 5 µM [9]: 83%
remaining activity at 5 µM [10]: 100%
remaining activity at 5 µM [11]: 100%
remaining activity at 5 µM [12]: 100%
remaining activity at 5 µM [13]: 74%
remaining activity at 5 µM [14]: 80%
remaining activity at 5 µM [15]: 74%
remaining activity at 5 µM [16]: 92%
remaining activity at 5 µM [17]: 99%
IC50 [18]: 241 nM
solubility kinetic [19]: 32 µM
IC50 [20]: 276 nM
IC50 [21]: 1110 nM
IC50 [22]: 2420 nM
IC50 [23]: 71 nM
remaining activity at 5 µM [24]: 100%
IC50 [25]: 2060 nM
remaining activity at 5 µM [26]: 98%
remaining activity at 5 µM [27]: 90%
remaining activity at 5 µM [28]: 100%
remaining activity at 5 µM [29]: 92%
remaining activity at 5 µM [30]: 91%
